In US12630529B2, “GCN2 modulator compounds” (ALESTA THERAPEUTICS BV, priority 2020, dated 2026):

Key:
[1] = tested on: HT29 cells; assay: Growth of tumor spheroids; type: cell-based; conditions: 64 μM arginine, up to 120 hours, vs untreated spheroids
Experimental: The growth of tumor spheroids was evaluated following treatment of cells with Compound 1, Compound 2 and Compound 108. Briefly, HT29 cells were seeded at 5,000 cells/well in ultra-low attachment round bottom 96-well plates, in 100 μL SILAC DMEM Flex media without phenol red, supplemented with 10% fetal bovine serum (FBS), 1 g/L glucose, 2 mM glutamine, 220 μM lysine, and 64 μM arginine. The plates were centrifuged for 10 minutes at 125×g and put in a humidified incubator at 37° C. for 3 days before the onset of the experiment to allow spheroids to form.
Three days after seeding, 10 μM Compound 1, 10 μM Compound 2, 10 μM Compound 108 or 10 μM vehicle control (0.1% DMSO), were added together with 100 nM fluorescent apoptosis stain (e.g., YO-PRO™-1 Iodide; Thermo Fisher) to detect apoptotic cells and Nuclear-ID Red DNA Stain (1:100,000; ENZO Life Sciences) to detect live cells. Plates were placed in a live-cell imaging and analysis platform (e.g., IncuCyte ZOOM®; Essenbio) set up in a humidified incubator at 37° C. and scanned every 4 hours for up 120 hours, at 10× magnification, to determine relative spheroid size and cell death. Experiments were performed in quadruplicate and analyzed using live-cell imaging and analysis software (e.g., IncuCyte ZOOM® 2018A software; Essenbio).

[2] = tested on: HT29 cells; assay: Proliferation and apoptosis of colorectal cancer cells (live-cell imaging); type: cell-based; conditions: 10 μM, 64 μM arginine, up to 96 hours, vs untreated cells; for rate of apoptotic cell death: YO-PRO-1 uptake
Experimental: Proliferation and apoptosis of HT29 cells was determined in the presence of Compound 1 and Compound 2. Briefly, cells were seeded in 96-well flat bottom plates at 4,000 cells per well in 100 μL SILAC DMEM Flex media without phenol red, supplemented with 10% fetal bovine serum (FBS), 1 g/L glucose, 2 mM glutamine, 220 μM lysine, containing a physiological concentration of arginine (64 μM). After 24 hours, cells were treated with 10 μM vehicle control (Control; 0.1% DMSO), 10 μM Compound 1, or 10 μM Compound 2, together with 100 nM of fluorescent apoptosis stain (YO-PRO™-1 Iodide; Thermo Fisher) to detect apoptotic cells. Cells were placed in a live-cell imaging and analysis platform (IncuCyte ZOOM®; Essenbio) set up in a humidified incubator at 37° C. and the plates were scanned every 4 hours for up 96 hours, at 10× magnification to determine cell confluence and cell death. Experiments were performed in duplicate with 3 images collected per well and analyzed using live-cell imaging and analysis software (e.g., IncuCyte ZOOM® 2018A software; Essenbio).

[3] = tested on: CHOP (DDIT3) reporter; assay: GCN2-induction of CHOP and apoptosis in 3T3 fibroblasts with CHOP (DDIT3) reporter construct; type: cell-based, murine; conditions: for GCN2 activation / GCN2-induced CHOP activation: murine 3T3 CHOP (mCherry) reporter fibroblasts, increasing concentrations, in the presence of halofuginone or histidinol; for apoptosis induced by halofuginone / late-stage apoptosis induced by histidinol: murine 3T3 WT cells; for apoptosis induced by halofuginone: co-treatment with halofuginone; for late-stage apoptosis induced by histidinol: co-treatment with histidinol
Experimental: The CHOP construct comprised the […] (UTR) of mouse DDIT3 mRNA fused to a sequence encoding the fluorescent protein mCherry.
Cells were seeded at 5,000 cells per well in flat bottom 96-well plates in 100 μL DMEM low glucose media without phenol red, and supplemented with 10% FBS and 2 mM glutamine. After 24 hours, the exemplary compounds, and either tunicamycin, halofuginone, or histidinol, were added together with 100 nM of fluorescent apoptosis stain (YO-PRO™-1 Iodide; Thermo Fisher) to detect apoptotic cells. Cells were placed in a live-cell imaging and analysis platform (IncuCyte ZOOM®; Essenbio) set up in a humidified incubator at 37° C. and the plates were scanned every 4 hours for up 120 hours, at 10× magnification, to determine cell confluence and cell death. Experiments were performed in duplicate with 3 images collected per well, and analyzed using live-cell imaging and analysis software (IncuCyte ZOOM® 2018A software; Essenbio).

[4] = molecular target: T1, GCN2 (Mus musculus, UniProt Q9QZ05); assay: GCN2 inhibition cell-based assay (P-GCN2 Western blot in Neuro 2a cells); conditions: amino acid deprived media (DMEM lacking L-cysteine and methionine), 3 hours
T1 construct: endogenous in cells; host or cells: Neuro 2a (N2a)
T1 sequence (Q9QZ05 whole entry): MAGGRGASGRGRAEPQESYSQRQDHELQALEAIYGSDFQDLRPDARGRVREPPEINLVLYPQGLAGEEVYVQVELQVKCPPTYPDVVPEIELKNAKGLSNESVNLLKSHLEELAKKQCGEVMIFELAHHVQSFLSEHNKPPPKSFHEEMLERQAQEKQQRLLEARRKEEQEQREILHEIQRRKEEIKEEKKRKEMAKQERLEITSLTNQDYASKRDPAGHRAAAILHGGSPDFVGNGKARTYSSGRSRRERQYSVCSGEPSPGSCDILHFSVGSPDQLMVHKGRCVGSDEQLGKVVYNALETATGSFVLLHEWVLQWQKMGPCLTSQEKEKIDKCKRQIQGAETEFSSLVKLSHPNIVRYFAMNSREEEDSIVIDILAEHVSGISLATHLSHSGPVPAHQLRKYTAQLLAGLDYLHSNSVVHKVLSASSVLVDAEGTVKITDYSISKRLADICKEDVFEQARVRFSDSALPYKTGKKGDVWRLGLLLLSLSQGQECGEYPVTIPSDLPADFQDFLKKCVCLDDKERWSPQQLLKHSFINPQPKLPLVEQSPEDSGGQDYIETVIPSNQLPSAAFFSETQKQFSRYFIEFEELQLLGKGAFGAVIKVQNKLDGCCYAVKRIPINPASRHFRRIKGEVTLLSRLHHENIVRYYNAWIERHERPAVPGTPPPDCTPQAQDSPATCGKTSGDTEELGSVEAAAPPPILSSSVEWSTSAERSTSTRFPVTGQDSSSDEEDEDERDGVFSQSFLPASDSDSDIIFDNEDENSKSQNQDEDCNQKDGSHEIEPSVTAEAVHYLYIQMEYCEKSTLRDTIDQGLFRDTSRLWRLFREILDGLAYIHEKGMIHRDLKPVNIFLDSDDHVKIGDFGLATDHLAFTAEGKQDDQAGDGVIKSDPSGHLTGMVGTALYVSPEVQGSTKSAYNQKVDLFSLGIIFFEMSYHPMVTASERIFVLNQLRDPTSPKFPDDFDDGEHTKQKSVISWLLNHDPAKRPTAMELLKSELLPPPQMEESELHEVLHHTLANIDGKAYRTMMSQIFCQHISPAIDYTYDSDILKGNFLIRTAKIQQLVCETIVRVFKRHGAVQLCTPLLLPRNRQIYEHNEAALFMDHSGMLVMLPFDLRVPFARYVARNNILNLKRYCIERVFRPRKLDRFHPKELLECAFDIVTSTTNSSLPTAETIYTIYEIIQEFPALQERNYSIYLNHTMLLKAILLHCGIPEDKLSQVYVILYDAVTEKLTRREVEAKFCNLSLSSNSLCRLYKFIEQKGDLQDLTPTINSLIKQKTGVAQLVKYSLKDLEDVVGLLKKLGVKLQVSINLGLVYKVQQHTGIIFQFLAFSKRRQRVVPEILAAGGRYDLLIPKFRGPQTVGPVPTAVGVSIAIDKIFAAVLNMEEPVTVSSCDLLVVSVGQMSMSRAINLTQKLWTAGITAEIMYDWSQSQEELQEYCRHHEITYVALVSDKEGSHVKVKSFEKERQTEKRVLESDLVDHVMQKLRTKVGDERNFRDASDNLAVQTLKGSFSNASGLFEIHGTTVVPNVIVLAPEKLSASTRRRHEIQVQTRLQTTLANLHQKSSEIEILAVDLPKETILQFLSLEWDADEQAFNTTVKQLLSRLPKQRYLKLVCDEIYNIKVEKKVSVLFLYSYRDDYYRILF
Experimental: Neuro 2a cells (N2a) were maintained at 37° C. and 5% CO2 in DMEM/F12 medium (Fisher Scientific) supplemented with 10% fetal bovine serum and 1% penicillin-streptomycin (complete medium). 300,000 cells/well were seeded in flat bottom 6 well plates 48 hours before treatment with the compounds.
Testing compounds were prepared at different concentrations ranging from 10 μM to 0.1 nM on DMEM medium lacking L-cysteine and methionine (DMEM-CM) (Gibco) and supplemented with 1% penicillin-streptomycin. Complete medium was used as control of non-stressed condition. After 48 hours, the medium was removed from each well and 2 mL per well of each treatment was added. Cells were treated for 3 hours at 37° C. and 5% CO2.
After the incubation time, each well was washed with sterile 1×PBS and then 100 μL of ice-cold lysis buffer supplemented with phosphatase and protease inhibitors was added. Lysates were transferred to 1.5 mL tubes and sonicated for 3 min, and total protein amounts were quantified using BCA assay (e.g., BCA Protein Assay Kit; Pierce) according to manufacturer instructions. Equal amount of proteins was loaded on SDS-PAGE gels for electrophoresis and then transferred onto 0.2 µm filter pore PVDF membranes.
Membranes were then blocked in blocking buffer containing 3% BSA/0.1% Tween/1×Tris-buffered saline (TBS) for 1 hour and then incubated overnight at 4° C. with agitation with anti-pGCN2 primary antibody (Abcam ab-75836), diluted 1:1,000 in blocking buffer. […] (Sigma Aldrich) was used as a loading control.
Membranes were then incubated with the corresponding secondary antibody to detect immune-reactive bands using enhanced chemiluminescence (e.g., ECL Western Blotting Substrate Pierce).
Images were acquired (e.g., using Chemidoc™ equipment) and quantitated by densitometry using ImageJ software. IC50 values were determined from a concentration-response curve using GraphPad prism software.
IC50 values from P-GCN2 inhibition assay after induction with amino acid deprived media in the presence of different concentrations of test compounds are shown in Table 2. For IC50 values: +++ refers to <10 nM of test compound; ++ refers to 10 nM to 100 nM of test compound; + refers to 100 nM to 1,000 nM of test compound and − refers to >1,000 nM of test compound.
Under GCN2-mediated stress conditions, resulting from an amino acid deprived medium, GCN2 is generally phosphorylated. Accordingly, inhibition of GCN2 phosphorylation as a result of the test compound indicates inhibition of the GCN2 pathway.

Compound	spheroid size and viability [1]	rate of apoptotic cell death [2]	cell density / confluence [2]	GCN2 activation / GCN2-induced CHOP activation [3]	apoptosis induced by halofuginone [3]	late-stage apoptosis induced by histidinol [3]	IC50 [4] [nM]
COc1ncc(Cl)cc1S(=O)(=O)Nc1ccc(F)c(-c2ccc3nc(N)ncc3c2)c1F [Compound 1]	relative reduction in spheroid size and viability in a dose-dependent manner	increased rate of apoptotic cell death	grew less dense	reduced GCN2 activation	effectively inhibited apoptosis	increased late-stage apoptosis	< 10
Nc1ncc2cc(-c3c(F)ccc(NS(=O)(=O)c4cc(Cl)ccc4Cl)c3F)ccc2n1 [Compound 2]	relative reduction in spheroid size and viability in a dose-dependent manner	increased rate of apoptotic cell death	grew less dense	reduced GCN2 activation	effectively inhibited apoptosis	increased late-stage apoptosis	< 10
